What all share (type): cell-based
Assay [1] deals with N87 human gastric cancer cell line. Nature of the assay: Cytotoxic activity of dimers against N87 cells. The settings on record: read-out: Cell Line (IC50, nM) N87. The source says: (§1) H226 is a human lung cancer cell line. N87 is a human gastric cancer cell line. OVCAR3 is a human ovarian cancer cell line. HCT116 is a human colon cancer cell line. HCT116/VM46 is a human colon cancer cell line that is multi-drug and paclitaxel resistant.

The subject of assay [2] is HCT116 human colon cancer cell line. Nature of the assay: Cytotoxic activity of dimers against HCT116 cells.
Description: as §1

In assay [3] the test system is HCT116/VM46 human colon cancer cell line (multi-drug and paclitaxel resistant). In words: Cytotoxic activity of dimers against HCT116/VM46 cells.
Description: as §1

Assay [4] concerns H226 human lung cancer cell line. Nature of the assay: Cytotoxic activity of dimers against H226 cells.
Description: as §1

In assay [5] the test system is OVCAR3 human ovarian cancer cell line. In words: Cytotoxic activity of dimers against OVCAR3 cells.
Description: as §1

Where [6] appears, read: Table 4, N87 human gastric cancer cell line.
The mark [7] stands for this setting: Table 4, H226 human lung cancer cell line, read-out: Cell Line (IC50, nM) H226.
Setting [8] is: Table 4, OVCAR3 human ovarian cancer cell line, read-out: Cell Line (IC50, nM) OVCAR3.
[9] abbreviates: Homo sapiens, HCT-116/VM46, Table 4.
Where [10] appears, read: Homo sapiens, NCI-H226, read-out: Cell Line (IC50, nM) H226.
[11] abbreviates: Homo sapiens, OVCAR-3, read-out: Cell Line (IC50, nM) OVCAR3.

Like-named read-outs stand apart in the source and are kept apart here. Bounds are passed on as bounds.

As usually defined, the IC50 is the concentration needed to halve the response being measured.

For `COCCOc1ccc(C2=CN3C(=O)c4cc5c(cc4N=C[C@@H]3C2)OCCCOc2cc3c(cc2OCCCCCCCCCCCCO5)C(=O)N2C=C(c4ccc(OCCOC)cc4)C[C@H]2C=N3)cc1` [IIc-3], the IC50 in assay [1] (setting [6]) was determined as 29 nM; in assay [2] (Table 4) it was 13 nM; in assay [3] (Table 4), 58 nM; in assay [4] (setting [7]), 32 nM; in assay [5] (setting [8]) it was 104 nM.

In the case of `C=C1C[C@H]2C=Nc3cc4c(cc3C(=O)N2C1)OCCCCCCCCOc1cc2c(cc1OCCCO4)N=C[C@@H]1Cc3ccc(N)cc3CN1C2=O` [IId-2], the IC50 in assay [1] (setting [6]) came to 1.1 nM; in assay [2] (Table 4) it was 0.11 nM; in assay [3] (Table 4) it was 2.8 nM; in assay [4] (setting [7]), 0.56 nM; in assay [5] (setting [8]), 0.71 nM.

Consider `CN1CCN(c2ccc(C3=CN4C(=O)c5cc6c(cc5N=C[C@@H]4C3)OCCCOc3cc4c(cc3OCCCCCCCCO6)C(=O)N3C=C(c5ccc(N6CCN(C)CC6)cc5)C[C@H]3C=N4)cc2)CC1` [IIc-8], for which the IC50 turned out to be 0.034 nM in assay [1] (setting [6]); 0.006 nM in assay [2] (Table 4); 0.076 nM in assay [3] (Table 4); 0.047 nM in assay [4] (setting [7]); 0.35 nM in assay [5] (setting [8]).

Regarding `COc1ccc(C2=CN3C(=O)c4cc5c(cc4N=C[C@@H]3C2)OCCCOc2cc3c(cc2OCCCCCCCCCCCCO5)C(=O)N2C=C(c4ccc(OC)cc4)C[C@H]2C=N3)cc1` [IIc-2], the IC50 in assay [1] (setting [6]) is 230 nM; in assay [2] (Table 4), 48 nM; in assay [3] (Table 4), greater than 250 nM; in assay [4] (setting [7]), 220 nM; in assay [5] (setting [8]), greater than 250 nM.

For the compound `COc1ccc(C2=CN3C(=O)c4cc5c(cc4N=C[C@@H]3C2)OCCCOc2cc3c(cc2OCCCCCCCCO5)C(=O)N2C=C(c4ccc(OC)cc4)C[C@H]2C=N3)cc1` [IIc-7], the IC50 in assay [1] (setting [6]) turned out to be 0.62 nM; in assay [2] (Table 4) it was 0.17 nM; in assay [3] (Table 4) it was 1.1 nM; in assay [4] (setting [7]) it was 0.99 nM; in assay [5] (setting [8]), 1.8 nM.

Regarding `C=C1C[C@H]2C=Nc3cc4c(cc3C(=O)N2C1)OCCOCCOCCOc1cc2c(cc1OCCCO4)N=C[C@@H]1CC(=C)CN1C2=O` [IIa-13], the IC50 turned out to be 40 nM in assay [1] (setting [6]); 32 nM in assay [2] (Table 4); 85 nM in assay [3] (Table 4); 29 nM in assay [4] (setting [7]); 20 nM in assay [5] (setting [8]).

Consider `CN1CCN(c2ccc(C3=CN4C(=O)c5cc6c(cc5N=C[C@@H]4C3)OCCCOc3cc4c(cc3OCCCCCCCCO6)C(=O)N3C=C(c5ccc(N6CCNCC6)cc5)C[C@H]3C=N4)cc2)CC1` [IIc-9], for which the IC50 came to 0.68 nM in assay [1] (Homo sapiens); 0.063 nM in assay [2] (HCT-116, Table 4); 0.16 nM in assay [3] (setting [9]); 0.33 nM in assay [4] (setting [10]); 1 nM in assay [5] (setting [11]).

As for `O=C1c2cc3c(cc2N=C[C@@H]2CC(c4ccccc4)=CN12)OCCCOc1cc2c(cc1OCCOCCOCCO3)C(=O)N1C=C(c3ccccc3)C[C@H]1C=N2` [IIc-6], the IC50 amounted to 1.5 nM in assay [1] (setting [6]); 0.13 nM in assay [2] (Table 4); 6.4 nM in assay [3] (Table 4); 1.1 nM in assay [4] (setting [7]); 1.7 nM in assay [5] (setting [8]).

Regarding `Nc1ccc(CN2CCCCOc3cc4c(cc3OCCCOc3cc5c(cc3OCCCC2)C(=O)N2Cc3ccccc3C[C@H]2C=N5)N=C[C@@H]2Cc3ccccc3CN2C4=O)cc1` [IIb-8], the IC50 in assay [1] (setting [6]) stood at 0.27 nM; in assay [2] (Table 4), 0.015 nM; in assay [3] (Table 4), 1.2 nM; in assay [4] (setting [7]) it was 0.13 nM; in assay [5] (setting [8]) it was 0.25 nM.

Take `COc1ccc(C2=CN3C(=O)c4cc5c(cc4N=C[C@@H]3C2)OCCCOc2cc3c(cc2OCCCCCCCCO5)C(=O)N2C=C(c4ccc(N)cc4)C[C@H]2C=N3)cc1` [IIc-11]: the IC50 in assay [1] (Homo sapiens) is 0.56 nM; in assay [2] (HCT-116, Table 4), 0.063 nM; in assay [3] (setting [9]), 0.36 nM; in assay [4] (setting [10]), 0.36 nM; in assay [5] (setting [11]), 0.31 nM.

For the compound `Nc1ccc2c(c1)CN1C(=O)c3cc4c(cc3N=C[C@@H]1C2)OCCCOc1cc2c(cc1OCCCCCCCCO4)C(=O)N1Cc3ccccc3C[C@H]1C=N2` [IIb-6], the IC50 in assay [1] (Homo sapiens) is 0.25 nM; in assay [2] (HCT-116, Table 4), 0.016 nM; in assay [3] (setting [9]), 0.66 nM; in assay [4] (setting [10]), 0.21 nM; in assay [5] (setting [11]), 0.21 nM.

`C=C1C[C@H]2C=Nc3cc4c(cc3C(=O)N2C1)OCCCCNCCCCOc1cc2c(cc1OCCCO4)N=C[C@@H]1CC(=C)CN1C2=O` [IIa-14]: the IC50 in assay [1] (setting [6]) came out at 23 nM; in assay [2] (Table 4), 38 nM; in assay [3] (Table 4), 170 nM; in assay [4] (setting [7]), 21 nM; in assay [5] (setting [8]), 50 nM.

For the compound `O=C1c2cc3c(cc2N=C[C@@H]2Cc4ccccc4CN12)OCCCOc1cc2c(cc1OCCOCCOCCO3)C(=O)N1Cc3ccccc3C[C@H]1C=N2` [IIb-4], the IC50 is 0.14 nM in assay [1] (setting [6]); 0.068 nM in assay [2] (Table 4); 2 nM in assay [3] (Table 4); 0.15 nM in assay [4] (setting [7]); 0.2 nM in assay [5] (setting [8]).

(Values after patent US9902740B2, “Macrocyclic benzodiazepine dimers, conjugates thereof, preparation and uses” (BRISTOL-MYERS SQUIBB COMPANY, priority 2015, dated 2018).)
